Here are results for nine molecules from patent publication US20060035810A1, “Regulation of ins(3456)p4 signalling by a reversible kinase phosphatase and methods and compositions related thereto” (priority 2002, published 2006).

Assay [1] concerns the target T1, Ins(1,3,4,5,6)P5 1-phosphatase activity of Ins(3,4,5,6)P4 kinase (Homo sapiens, UniProt Q13572).
T1 construct: made in house; host or cells: E. coli
T1 sequence (Q13572 1-414): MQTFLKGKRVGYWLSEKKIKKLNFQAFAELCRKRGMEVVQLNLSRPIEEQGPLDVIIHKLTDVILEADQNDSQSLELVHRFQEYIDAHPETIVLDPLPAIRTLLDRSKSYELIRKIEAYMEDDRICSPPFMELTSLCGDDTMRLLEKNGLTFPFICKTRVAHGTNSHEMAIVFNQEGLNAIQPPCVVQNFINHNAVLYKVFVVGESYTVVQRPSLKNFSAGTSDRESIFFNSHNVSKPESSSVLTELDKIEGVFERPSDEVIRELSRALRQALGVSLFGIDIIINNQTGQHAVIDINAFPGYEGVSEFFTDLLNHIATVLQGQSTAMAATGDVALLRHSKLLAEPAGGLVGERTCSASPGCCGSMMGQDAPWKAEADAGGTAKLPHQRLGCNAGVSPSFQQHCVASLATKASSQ
The assay is described as follows: Inositol phosphate phosphatase activity assay with ADP (HPLC). Format: biochemical. Conditions: 5 μM Ins(1,3,4,5,6)P5, 5 mM ADP, addition of 1-5 μM Ins(1,3,4)P3. As to the method: Ins(3,4,5,6)P4 kinase (0.4 μg) was incubated for 30 min in 100 μl phosphatase assay buffer (see Methods) either with (closed circles) or without (open circles) 5 mM ADP plus trace-amounts of either [^3H]Ins(1,3,4,5,6)P5 (panel A) [^3H]Ins(1,3,4,6)P4 (panel B), or [^3H]Ins(1,3,4,5)P4 (panel C). Samples were analyzed by HPLC (see Methods). The elution positions of Ins(1,3,4)P3 and Ins(3,4,5,6)P4 were verified with genuine standards. The elution positions of Ins(1,3,4,6)P4 (106 min, panel B) and of Ins(1,3,4,5)P4 (110 min, panel C) exclude these as products of InsP5 dephosphorylation (panel A).
Additional incubations were performed with 5 μM [^3H]Ins(1,3,4)P3 (approx. 1200 d.p.m.) plus either no Ins(1,3,4,5,6)P5 (open circles) or 5 μM non-radiolabeled Ins(1,3,4,5,6)P5 (closed circles); these reactions were assayed by HPLC (Synchropak Q100 column) and the InsP4 region of the chromatogram is shown in Panel B.
(§1) Inositol phosphate phosphatase activity was assayed in buffer containing 100 mM KCl, 20 mM HEPES pH 7.2, 5 mM ADP, 6 mM MgSO4, 0.3 mg/ml bovine serum albumin. Assays were acid-quenched, neutralized and analyzed by HPLC using a Synchropak Q100 columm (Caffrey et al., “Expanding Coincident Signaling by PTEN through its Inositol 1,3,4,5,6-Pentakisphosphate 3-phosphatase Activity,” FEBS Lett 499: 6-10 (2001)); 1 ml fractions were collected for 70 min., followed by 0.5 ml fractions. Inositol phosphate kinase activity was assayed in buffer containing 100 mM KCl, 20 mM HEPES pH 7.2, 5 mM ATP, 10 mM phosphocreatine, 6 mM MgSO4, 10 μg/ml creatine phosphokinase (Calbiochem), 0.3 mg/ml bovine serum albumin. Some assays were acid-quenched and analyzed by HPLC using a Synchropak Q100 column. Other reactions were heat-inactivated (95° C., 3 min) and analyzed by a metal dye detection, HPLC method (Mayr, “A novel metal-dye detection sysytem permits picomolar-range h.p.l.c. analysis of inositol polyphosphates from non-radioactively labelled cell or tissue specimens,” Biochem J 254: 585-591 (1988); Adelt et al., “Enzyme-assisted total synthesis of the optical antipodes D-myo-inositol 3,4,5-trisphosphate and D-myo-inositol 1,5,6-trisphosphate: aspects of their structure-activity relationship to biologically active inositol phosphates,” J Med Chem 42: 1262-1273 (1999)).

Assay [2] addresses T2, Recombinant human Ins(3,4,5,6)P4 1-kinase (Homo sapiens, UniProt Q13572).
T2 construct: made in house; host or cells: E. coli
T2 sequence (Q13572 1-414): T1 sequence (Q13572 1-414)
Kind of assay: Inositol phosphate kinase activity assay (HPLC). Format: biochemical. The conditions noted are these: for product of phosphorylation by the kinase: 50 uM substrate, 3.4 ug enzyme, 4 hr, 37° C., 5 mM ATP. The method, then:
as §1
Activity of 3.4 ug of inositol 3,4,5,6-tetrakisphosphate 1-kinase was assayed for 4 hr. at 37° C. in 200 μl buffer containing 100 mM KCl, 20 mM HEPES pH 7.2, 5 mM ATP, 10 mM phosphocreatine, 6 mM MgSO4, 10 μg/ml creatine phosphokinase (Calbiochem), 0.3 mg/ml bovine serum albumin and 50 uM of either inositol 3,4,5-trisphosphate, 4,5,6-trisphosphate or inositol 3,5,6-trisphosphate. Reactions were heat-inactivated (95° C., 3 min) and analyzed by a metal dye detection, HPLC method.
[…] (Manassas, Va.) supplied the CFPAC-1 cells and T84 cells. Recombinant human Ins(3,4,5,6)P4 1-kinase was expressed in E. coli and purified (Yang et al., “Multitasking in Signal Transduction by a Promiscuous Human Ins(3,4,5,6)P4 1-Kinase/Ins(1,3,4)P3 5/6-Kinase,” Biochem J 351: 551-555 (2000)). Non-radiolabeled Ins(1,3,4)P3 and Ins(1,3,4,5,6)P5 were purchased from CellSignals Inc (Lexington, Ky.). The details of the synthesis of non-radiolabeled Ins(3,4,5)P3, Ins(3,5,6)P3, Ins(4,5,6)P3 and Ins(3,4,6)P3 (as sodium salts) will be published separately by S.-K. C. Ins(3,4,6)P3 was also prepared by a different synthetic route (Mills et al., “Synthesis of D- and L-myo-inositol 1,4,6-trisphosphate, regioisomers of a ubiquitous second messenger,” J Org Chem 61: 8980-8987 (1996)). [^3H]Ins(1,3,4,5,6)P5 was prepared as previously described (Zhang et al., “The Transcriptional Regulator, Arg82, is a Hybrid Kinase with both Monophosphoinositol- and Diphosphoinositol-Polyphosphate Synthase Activity,” FEBS Lett 494: 208-212 (2001)). [^3H]Ins(1,3,4)P3 was prepared from [^3H]Ins(1,3,4,5)P4 (New England Nuclear) using recombinant Ins(1,4,5)P3/Ins(1,3,4,5)P4 5-phosphatase (Erneux et al., “Production of recombinant human brain type I inositol-1,4,5-trisphosphate 5-phosphatase in Escherichia coli. Lack of phosphorylation by protein kinase C,” Eur J Biochem 234: 598-602 (1995)). [^3H]Ins(1,3,4)P3 was converted to [^3H]Ins(1,3,4,6)P4 using Ins(1,3,4)P3 6-kinase activity (Yang et al., “Multitasking in Signal Transduction by a Promiscuous Human Ins(3,4,5,6)P4 1-Kinase/Ins(1,3,4)P3 5/6-Kinase,” Biochem J 351: 551-555 (2000)). [^3H]Ins(3,4)P2 was prepared by alkaline phosphatase attack on [^3H]Ins(1,3,4)P3 in 20 mM glycine (pH 9.0 with KOH). [^3H]Ins(1,4)P2 was purchased from New England Nuclear.

Assay [3] deals with insulin granules in pancreatic β-cells. The assay is described as follows: Insulin granule acidification, LSG fluorescence with patch-clamp and confocal imaging. Format: cell-based, mouse. The method, then: FIG. 6. Ins(3,4,5,6)P4 inhibits acidification of insulin granules in pancreatic β-cells. FIG. 6A, Representative time-courses for intragranular acidification, monitored by increased fluorescence of LSG before and after establishment of the standard whole-cell configuration (see arrow) and the effect of perfusion of intracellular medium (containing 0.4 μM [Ca^2+]free except where “no calcium” is indicated; see Methods) plus either 0 (“control”), 1 or 10 μM Ins(3,4,5,6)P4. FIG. 6B, Mean (±SE) fluorescence changes (n-5-11), during the 60 s that followed establishment of the standard whole-cell configuration, for cells perfused with inositol phosphates as indicated at the base of the bar graph. Where indicated, DIDS (100 μM) were added to the bath solution 30 min prior to patching the cells. Statistical significance was evaluated by Student's unpaired t-test (* P<0.01).
The inositol phosphates used in this study were all purchased from CellSignals Inc (Lexington, Ky.). Insulin granule pH were monitored by combining the patch-clamp technique with confocal imaging. Pancreatic β-cells, isolated and cultured on glass coverslips for 2-24 h, were voltage clamped at −70 mV, as previously described (B9). LysoSensor-Green™ DND-189 (1 μM; Molecular Probes, Leiden, The Netherlands) was added during the last 30 min of cell culture and was also included in the extracellular buffer (B9) that continuously perfused the experimental chamber. All LSG experiments were performed at 20° C. to prevent exocytosis that otherwise interfered with the optical measurements (15). LSG fluorescence was excited using the 488 nm-line of a Zeiss 510 confocal microscope. The emitted light was collected with a 63×/1.3 NA oil objective and a >505 nm filter. Laser scanning was performed with low pixel resolution (128×128) and with 6 s intervals to minimize photo-bleaching. After gigaseal formation, it was ascertained that LSG fluorescence was stable for at least 30 s before the experiment commenced. The intracellular electrode solution contained: 125 mM K-glutamate, 10 mM KCl, 1 0 mM NaCl, 1 mM MgCl2, 5 mM HEPES, 3 mM Mg-ATP, 0.1 mM cAMP, 10 mM EGTA and 7 mM CaCl2 (˜0.4 μM free [Ca^2+]I; pH 7.2 with KOH). In some experiments, marked “no calcium”, there was no added Ca^2+, and the concentration of EGTA was 50 μM. Whole-cell capacitance measurements (at 33° C.) were made with the cells clamped at −70 mV, and the standard whole-cell configuration was established at t=0. Capacitance recordings were made using an EPC-7 patch-clamp amplifier equipped with the software Pulse (version 8.4 and later) and the X-chart extension (HEKA Elektronik, Lambrecht/Pfalz, Germany) (B9).

For assay [4], the system named is calcium-activated Cl− channels. The assay is described as follows: Whole-cell Cl− current in CFPAC-1 cells (bio-assay for Ins(3,4,5,6)P4). Format: cell-based, human. The conditions noted are these: 100 μM introduced into CFPAC-1 cells; control 54±3 pA/pF. As to the method: T84 cells were detached by incubation with 0.25% (w/v) trypsin/0.02% (w/v) EDTA for 5-6 min. After trypsin removal, 200 μl aliquots (1.5×10^6/ml) were seeded into the circular wells (area=0.45 cm^2) of permeable supports, made by gluing (Silastic® sealant, Dow Corning, Midland, Mich.) a Sylgard® ring to filters composed of mixed cellulose esters (Millipore Corp., Bedford, Mass.). Seeded supports were floated on culture medium and incubated for 11-14 days before being mounted in modified Snapwell holders in Using chambers (EasyMount System, Physiologics Instruments, San Diego, Calif.). Transcellular Cl^− flux was then recorded as the short-circuit current as previously described. The resistance of the monolayers were (vector) 346±44 ohms/cm^2 (mean±se, n=12) and (kinase) 354±62 ohms/cm^2 (mean±se, n=12). Whole-cell Cl^− currents in CFPAC—I cells were measured at +40 mV as previously described using an intracellular Ca^2+-BAPTA buffer to clamp free [Ca^2+] to 0.5 μM [8]. One possibility is that Ins(3,4,5,6)P4 originates by phosphorylation of an InsP3 precursor. […] Control whole-cell Cl^− current (54±3 pA/pF, n—17) was reduced to 24±3 pA/pF (n=7) by 10 μM Ins(3,4,5,6)P4.

As for `O=P(O)(O)O[C@@H]1[C@H](O)[C@H](O)[C@@H](OP(=O)(O)O)[C@H](OP(=O)(O)O)[C@H]1O` [Ins(1,3,4)P3, inositol 1,3,4-trisphosphate], the “increase of net accumulation of Ins(3,4,5,6)P4” value in assay [1] is given as “up to 5 fold”.

Consider `O=P(O)(O)O[C@H]1[C@H](O)[C@@H](OP(=O)(O)O)[C@H](OP(=O)(O)O)[C@@H](OP(=O)(O)O)[C@H]1O` [Ins(1,3,4,5)P4], for which, in assay [2], the “whether the enzyme phosphorylates the inositol phosphate” value is reported as “does not phosphorylate”.

Turning to `O=P(O)(O)O[C@H]1[C@H](O)[C@@H](O)[C@H](OP(=O)(O)O)[C@@H](O)[C@H]1O` [Ins(1,4)P2], in assay [2], the “whether the enzyme phosphorylates the inositol phosphate” value is given as “not phosphorylated”.

For `O=P(O)(O)O[C@H]1[C@H](OP(=O)(O)O)[C@@H](OP(=O)(O)O)[C@@H](O)[C@@H](O)[C@@H]1OP(=O)(O)O` [Ins(1,4,5,6)P4, inositol 1,4,5,6-tetrakisphosphate], in assay [2], the “whether the enzyme phosphorylates the inositol phosphate” value is given as “does not phosphorylate”. The “effect on vesicle acidification” value in assay [3] (100 μM) was “neither 100 μM Ins(1,4,5,6)P4 nor 100 μM Ins(1,3,4,5,6)P5 affected”.

Regarding `O=P(O)(O)OC1[C@@H](OP(=O)(O)O)[C@@H](O)C(O)[C@H](O)[C@H]1OP(=O)(O)O` (stereo partly drawn) [Ins(3,4,5)P3, inositol 3,4,5-trisphosphate], the “whole-cell Cl− current” value in assay [4] is 61±7 pA/pF. Also, the “product of phosphorylation by the kinase” value in assay [2] is “phosphorylated to inositol 3,4,5,6-tetrakisphosphate”.

One may read the Km as the substrate concentration at which the rate is half of its maximum. Take `O=P(O)(O)O[C@H]1[C@H](O)[C@H](O)[C@H](OP(=O)(O)O)[C@@H](OP(=O)(O)O)[C@@H]1O` [Ins(3,4,6)P3, inositol 3,4,6-trisphosphate]: the “whole-cell Cl− current” value in assay [4] is recorded as 68±5 pA/pF. Further, in assay [2], the “product of phosphorylation by the kinase” value is recorded as “metabolized to Ins(1,3,4,5)P4”. Further, the Km in assay [2] (read-out: Km as kinase substrate) worked out at 0.2 µM.

Take `O=P(O)(O)O[C@@H]1[C@@H](O)[C@H](OP(=O)(O)O)[C@@H](OP(=O)(O)O)[C@H](O)[C@@H]1O` [Ins(3,5,6)P3, inositol 3,5,6-trisphosphate]: the “whole-cell Cl− current” value in assay [4] came out at 60±6 pA/pF. In addition, in assay [2], the “product of phosphorylation by the kinase” value is on record as “phosphorylated to inositol 1,3,5,6-tetrakisphosphate”.

Take `O=P(O)(O)OC1C(O)C(O)C(O)C(OP(=O)(O)O)C1OP(=O)(O)O` (stereo not drawn) [Ins(4,5,6)P3, inositol 4,5,6-trisphosphate]: the “whole-cell Cl− current” value in assay [4] stood at 56±7 pA/pF. For the same molecule, the “product of phosphorylation by the kinase” value in assay [2] is given as “phosphorylated to inositol 1,4,5,6-tetrakisphosphate”.

On to `NCCCCCCNS(=O)(=O)c1cccc2c(Cl)cccc12` [W-7], for which the “effect on granule acidification” value in assay [3] (treatment of the cells with calmodulin antagonist) is listed as “without effect”.
